Laboratory results: patent US20040176371A1, “Novel pyrazolopyrimidinethione derivatives, preparation methods thereof and their use as therapeutics for erectile dysfunction” (priority 2001, published 2004)

Legend:
[1] = molecular target: phosphodiesterase I (PDE I); experiment: Inhibitory activity against phosphodiesterase I (method of Thompson and Appleman); format: biochemical; details: enzyme isolated from diaphragm kidney cortex of rat
Description: (§1) In order to identify the effects of compounds of formula 1 according to the present invention on erectile dysfunction, inhibitory activities against phosphodiesterase V and other isozymes (I, III and VI) were evaluated in accordance with the following procedure.
(§2) Phosphodiesterases I, III and V were isolated from diaphragm kidney cortex of rat, phosphodiesterase VI was isolated from retina of rat. Inhibitory activities against the isolated enzymes were evaluated by the method of Thompson and Appleman (Thompson and Appleman, Biochemistry, 1971, 10, 311-316). A reaction mixture for enzyme activity [Total volume 100 μl: PDE enzymes (Column fraction 20˜40 μl), […] and 20 μl M calmodulin (10 μl addition for PDE I), [^3H]-cAMP, [^3H]-cGMP(1 μCi/μl), compound of formula 1 (0.01 nM˜1 μM), 50 mM Tris-HCl buffer solution (pH 7.4), 15 mM MgCl2, distilled water] was incubated in a water bath at 30° C. for 30 minutes, and then heat-denatured at 100° C. for 2 minutes to denature enzymes. After the reaction mixture was cooled down on ice, 250 μg/ml venom was added thereto. The resulting mixture was incubated at 30° C. for 10 minutes, and then 0.5 ml of cold d-H2O was added thereto to obtain a specimen. Guanine was separated from the specimen using an anion exchange resin (DEAE Sephacel A-25 anion exchange column). To measure the IC50 of specimen, radioactivity was counted by β-counter after treatment with 10 ml of scintillation cocktail solution.

[2] = molecular target: phosphodiesterase III (PDE III); experiment: Inhibitory activity against phosphodiesterase III (method of Thompson and Appleman); format: biochemical; details: enzyme isolated from diaphragm kidney cortex of rat
Description: as §1, §2

[3] = molecular target: T1, phosphodiesterase V (PDE V) (Rattus norvegicus, UniProt O54735); experiment: Inhibitory activity against phosphodiesterase V (method of Thompson and Appleman); format: biochemical; details: enzyme isolated from diaphragm kidney cortex of rat
T1 construct: Phosphodiesterases I, III and V were isolated from diaphragm kidney cortex of rat; from tissue; host or cells: rat 'diaphragm kidney cortex'
Description: as §1
as §2, with “Inhibitory activities against the isolated enzymes were evaluated by the method of Thompson and Appleman (Thompson and Appleman, Biochemistry, 1971, 10, 311-316).” left out

ICR mice = experiment: Acute toxicity when administered orally to mouse; format: in vivo; details: single oral administration, both male and female
Description: In order to evaluate the toxicity of the compounds of formula 1 according to the present invention, an experiment was performed as described below.
The compound prepared in the Example 5 was administered orally to four ICR mice (2 male, 2 female) once at a dose of 128, 320, 800, 2000 and 5000 mg/kg, respectively. 7 days after the administration, mortality rate, general symptoms, changes in weight, and autopsy results were recorded.

## CCCc1nn(C)c2c(=S)[nH]c(-c3cc(S(=O)(=O)N4CCN(C)CC4)ccc3OCC)nc12 [Example 5, 5-[2-ethoxy-5-(4-methylpiperazine-1-sulfonyl)phenyl]-1-methyl-3-propyl-1,6-dihydropyrazolo[4,3-d]pyrimidine-7-thione]
[1]
  IC50: 1890 nM
[2]
  IC50: 1250 nM
[3]
  IC50: 0.59 nM
ICR mice
  minimal lethal dose: more than 5000 mg/kg

## CCCc1nn(C)c2c(=S)[nH]c(-c3cc(S(=O)(=O)N4CCN(CCO)CC4)ccc3OCC)nc12 [Example 7, 5-{2-ethoxy-5-[4-(2-hydroxyethyl)piperazine-1-sulfonyl]phenyl}-1-methyl-3-propyl-1,6-dihydropyrazolo[4,3-d]pyrimidine-7-thione]
[1]
  IC50: 110 nM
[2]
  IC50: 3020 nM
[3]
  IC50: 0.4 nM

## CCCc1nn(C)c2c(=S)[nH]c(-c3cc(S(=O)(=O)N4CCNCC4)ccc3OCC)nc12 [Example 9, 5-[2-ethoxy-5-(piperazine-1-sulfonyl)phenyl]-1-methyl-3-propyl-1,6-dihydropyrazolo[4,3-d]pyrimidine-7-thione]
[1]
  IC50: 2430 nM
[2]
  IC50: 5630 nM
[3]
  IC50: 0.62 nM

## CCCOc1ccc(S(=O)(=O)N2CCN(C)CC2)cc1-c1nc2c(CCC)nn(C)c2c(=S)[nH]1 [Example 10, 1-methyl-5-[5-(4-methylpiperazine-1-sulfonyl)-2-propoxyphenyl]-3-propyl-1,6-dihydropyrazolo[4,3-d]pyrimidine-7-thione]
[1]
  IC50: 620 nM
[2]
  IC50: 1030 nM
[3]
  IC50: 0.58 nM

## CCCOc1ccc(S(=O)(=O)N2CCN(CCO)CC2)cc1-c1nc2c(CCC)nn(C)c2c(=S)[nH]1 [Example 12, 5-{5-[4-(2-hydroxyethyl)piperazine-1-sulfonyl]-2-propoxyphenyl}-1-methyl-3-propyl-1,6-dihydropyrazolo[4,3-d]pyrimidine-7-thione]
[1]
  IC50: 10 nM
[2]
  IC50: 1080 nM
[3]
  IC50: 0.46 nM

## CCCc1nn(C)c2c(=O)[nH]c(-c3cc(S(=O)(=O)N4CCN(C)CC4)ccc3OCC)nc12 [Sildenafil, reference compound]
[1]
  IC50: 2250 nM
[2]
  IC50: 1750 nM
